These results are taken from US8637439B2, “Bathing gel with improved environmental profile” (Coty Inc., priority 2009, dated 2014).

In series [1] the test system is aquatic trophic levels (fish, crustaceous, algae). The series can be described thus: Acute aquatic toxicity (aquatic trophic levels). The format is in vivo. The note with it: L(E)C50/SFacute. The source says: (§1) A comparison of the relative aquatic toxicity profile of the long-chain alkyl hydroxyalkyl cellulose derivative compared to anionic alketh surfactant is shown in Table 3.
(§2) The terms used are defined as follows: • LC50 or EC50: Lethal or effect concentration 50=Concentration in water having 50% chance of causing adverse effects or death to aquatic life) • SFacute: Safety Factor, determined according the number of trophic levels (fish, crustaceous, algae) studied (the largest, the best) • TFacute: L(E)C50/SFacute • NOEC: No observed effect concentration=The highest concentration for which the difference from the control group is not statistically significant in a long term study • SFchronic: Safety Factor, determined according the number of trophic levels (fish, crustaceous, algae) studied • TFchronic: NOEC/SFchronic

Series [2] shares this test system. Nature of the series: Chronic aquatic toxicity (aquatic trophic levels). Format: in vivo.
Excerpt: as §1, §2

In the case of C 12/15 A 1-3 EO sulfate, in series [1], the TFacute is recorded as 0.0041. Besides, the TFchronic in series [2] (NOEC/SFchronic) was 0.01. Moreover, the NOEC in series [2] (chronic toxicity, long term study) was determined as 0.1.
